Data published in patent US20080171716A1, “NUCLEIC ACID MODULATION OF TOLL-LIKE RECEPTOR-MEDIATED IMMUNE STIMULATION” (Protiva Biotherapeutics, Inc., priority 2006, published 2008).

target: T1, TLR9 (Mus musculus, UniProt Q9EQU3); test: CpG ODN (TLR9 agonist)-induced IFN-α in murine Flt3L-derived dendritic cells; type: cell-based; conditions: murine Flt3L cultures; phosphodiester backbone; formulated in lipid nanoparticles
T1 construct: endogenous in cells; host or cells: Flt3L-derived dendritic cells cultured from bone marrow of female Balb/C mice
T1 sequence (Q9EQU3 26-1032): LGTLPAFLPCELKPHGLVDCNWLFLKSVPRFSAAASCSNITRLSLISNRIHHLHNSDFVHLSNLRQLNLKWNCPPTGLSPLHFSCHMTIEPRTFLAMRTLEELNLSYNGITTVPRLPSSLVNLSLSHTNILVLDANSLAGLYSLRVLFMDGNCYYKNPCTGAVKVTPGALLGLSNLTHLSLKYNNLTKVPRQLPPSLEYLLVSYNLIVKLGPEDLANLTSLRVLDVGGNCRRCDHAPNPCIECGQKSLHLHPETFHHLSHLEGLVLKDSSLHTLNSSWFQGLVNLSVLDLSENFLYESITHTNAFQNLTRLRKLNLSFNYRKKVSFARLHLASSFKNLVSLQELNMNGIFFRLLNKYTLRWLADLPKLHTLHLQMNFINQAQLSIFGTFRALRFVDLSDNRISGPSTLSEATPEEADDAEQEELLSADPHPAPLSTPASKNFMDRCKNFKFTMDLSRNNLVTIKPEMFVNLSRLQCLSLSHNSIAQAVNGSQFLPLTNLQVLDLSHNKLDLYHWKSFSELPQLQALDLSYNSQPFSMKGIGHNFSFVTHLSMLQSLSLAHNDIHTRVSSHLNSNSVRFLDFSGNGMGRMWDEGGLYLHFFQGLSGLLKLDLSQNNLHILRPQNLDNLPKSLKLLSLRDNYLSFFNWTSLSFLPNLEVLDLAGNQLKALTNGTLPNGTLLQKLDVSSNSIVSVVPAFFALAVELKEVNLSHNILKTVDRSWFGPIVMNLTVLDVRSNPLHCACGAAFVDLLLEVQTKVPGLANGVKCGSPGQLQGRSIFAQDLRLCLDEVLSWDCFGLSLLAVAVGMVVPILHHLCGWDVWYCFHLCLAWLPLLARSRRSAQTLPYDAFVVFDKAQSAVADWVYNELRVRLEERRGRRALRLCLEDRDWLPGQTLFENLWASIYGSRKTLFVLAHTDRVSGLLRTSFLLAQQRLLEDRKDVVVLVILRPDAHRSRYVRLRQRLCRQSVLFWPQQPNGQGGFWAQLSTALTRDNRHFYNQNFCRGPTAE
Protocol: Lipid Encapsulation of RNA and ODN. RNA or ODN were encapsulated in liposomes by a process of spontaneous vesicle formation as described in Judge et al., supra, and Jeffs et al., Pharm. Res., 22:362-372 (2005).
Flt3L-derived dendritic cells (DC) were generated as described in Gilliet et al., J. Exp. Med., 195:953-958 (2002), using 100 ng/ml murine Flt3-ligand (Peprotech) supplemented media. Femurs and tibiae of female Balb/C mice were isolated and rinsed in sterile PBS. The ends of bones were cut and marrow harvested in complete media (RPMI 1640, 10% heat inactivated FBS, 1% penicillin/streptomycin, 2 mM L-glutamine, 1 mM sodium pyruvate, 25 mM HEPES, 50 μM 2-mercaptoethanol). Bone marrow cells were passed through a 70 μm strainer and centrifuged at 1000 rpm for 7 min. and resuspended in complete media supplemented with 100 ng/ml murine Flt3L to 2×10^6 cells/ml. 2 ml of cells were seeded in 6-well plates and 1 ml fresh media was added every two to three days. On day 9 of culture, non-adherent cells were washed in complete media and plated into 96-well plates at concentrations ranging from 0.5 to 2.5×10^5 cells/well.
Loxoribine (InvivoGen; San Diego, Calif.), polyIC (Sigma-Aldrich; St. Louis, Mo.), and formulated nucleic acids were diluted in PBS and added to either human PBMC or Flt3L DC cultures. Cells were incubated 24 h at 37° C. before supernatants were assayed for cytokines by ELISA.
Cytokine ELISA. All cytokines were quantified using sandwich ELISA kits according to the manufacturer's instructions. These were mouse and human IFN-α (PBL Biomedical; Piscataway, N.J.) and IL-6 (eBioscience; San Diego, Calif.).

Row | Substance | immunostimulatory activity of the ODN alone
1 | ODN M362: CpG Type C ODN, phosphodiester: TCGTCGTCGTTCGAACGACGTTGAT (DNA, all phosphodiester, methylation of C not given here; formulated in lipid nanoparticles) | highly immunostimulatory
2 | ODN 6295: CpG Type A ODN, phosphodiester: TAACGTTGAGGGGCAT (DNA, all phosphodiester, methylation of C not given here; formulated in lipid nanoparticles) | highly immunostimulatory
3 | ODN 1826 | highly immunostimulatory
